Assay results taken from PubChem BioAssay (NCI).
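Assay format: 96-well plates, 48-hour exposure. GI50 = concentration required for 50% inhibition of growth. The concentration for full growth arrest is given as TGI.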

Assays:
Experiment in all cases: NCI tumour cell line growth inhibition, 48 h
CCRF-CEM leukemia = system: CCRF-CEM leukemia
EKVX NSCLC = system: EKVX NSCLC
HOP-92 NSCLC = system: HOP-92 NSCLC
MOLT-4 leukemia = system: MOLT-4 leukemia
NCI-H23 lung = system: NCI-H23 lung
OVCAR-4 ovarian = system: OVCAR-4 ovarian
RXF 393 renal = system: RXF 393 renal
SF-268 CNS = system: SF-268 CNS
SF-539 CNS = system: SF-539 CNS
SK-MEL-2 melanoma = system: SK-MEL-2 melanoma

Row | Compound | TGI (CCRF-CEM leukemia) | TGI (EKVX NSCLC) | TGI (HOP-92 NSCLC) | TGI (MOLT-4 leukemia) | TGI (NCI-H23 lung) | TGI (OVCAR-4 ovarian) | TGI (RXF 393 renal) | TGI (SF-268 CNS) | TGI (SF-539 CNS) | TGI (SK-MEL-2 melanoma) | GI50 (CCRF-CEM leukemia) | GI50 (EKVX NSCLC) | GI50 (HOP-92 NSCLC) | GI50 (MOLT-4 leukemia) | GI50 (NCI-H23 lung) | GI50 (OVCAR-4 ovarian) | GI50 (RXF 393 renal) | GI50 (SF-268 CNS) | GI50 (SF-539 CNS) | GI50 (SK-MEL-2 melanoma)
1 | CSc1s[s+]c(SC)c1[O-] | > 100 µM | > 100 µM | > 100 µM | 48.2 µM | 50.4 µM | > 100 µM | 41.4 µM | 55.8 µM | 43.2 µM | > 100 µM |  |  |  |  |  |  |  |  |  | 
2 | C=CCSc1n[nH]c(-c2cccs2)n1 | > 100 µM | > 100 µM | > 100 µM | > 100 µM | > 100 µM | > 100 µM | > 100 µM | > 100 µM | > 100 µM | > 100 µM | > 100 µM | > 100 µM | > 100 µM | > 100 µM | > 100 µM | > 100 µM | > 100 µM | > 100 µM | > 100 µM | > 100 µM
3 | O=C=Nc1ccc(Cc2ccc(N=C=O)cc2)cc1 (tested in a mixture with another compound) | > 25 µg/mL | > 25 µg/mL | > 25 µg/mL | > 25 µg/mL | > 25 µg/mL | > 25 µg/mL | > 25 µg/mL | > 25 µg/mL | > 25 µg/mL | > 25 µg/mL | > 25 µg/mL | > 25 µg/mL | > 25 µg/mL | 1.33 µg/mL | > 25 µg/mL | > 25 µg/mL | > 25 µg/mL | > 25 µg/mL | > 25 µg/mL | > 25 µg/mL
4 | Oc1cccc(C2SCc3nc4ccccc4n32)c1 (stereo unspecified) | > 100 µM | > 100 µM | > 100 µM | > 100 µM | > 100 µM |  | > 100 µM | > 100 µM | > 100 µM | > 100 µM |  |  |  |  |  |  |  |  |  | 
5 | O=C(Nc1cc(C(F)(F)F)ccc1Cl)C(=O)C(C(=O)c1ccc2ccccc2c1)C1OC(=O)c2ccccc21 (stereo unspecified) | 33.7 µM | 34.8 µM | 28.1 µM | 9.16 µM | 17.8 µM | > 59.3 µM | 8.11 µM | 52.8 µM | 6.94 µM | 28.7 µM |  |  |  |  |  |  |  |  |  | 
6 | COC1OC(C)C(OC(=O)C(C)(C)C)C(C)(O)C1O (stereo unspecified) | > 100 µM |  | > 100 µM | > 100 µM | > 100 µM | > 100 µM | > 100 µM | > 100 µM | > 100 µM |  |  |  |  |  |  |  |  |  |  | 
7 | c1ccc(-c2cc(-c3cc(-c4ccccn4)[nH]n3)n[nH]2)nc1 |  | > 100 µM | > 100 µM | > 100 µM | > 100 µM | > 100 µM | > 100 µM | > 100 µM | > 100 µM | > 100 µM |  |  |  |  |  |  |  |  |  | 
8 | C[C@]12CC[C@@H]3c4ccc(O)cc4CC[C@H]3[C@@H]1CC[C@@H]2NS(=O)(=O)c1cccc(Br)c1 | 20.3 µM |  | 6.44 µM | 12.7 µM | 17 µM | 9.98 µM | 6.2 µM | 16.6 µM | 8.8 µM | 12 µM | 3.06 µM |  | 1.85 µM | 2.59 µM | 3.89 µM | 2.45 µM | 2.15 µM | 3.98 µM | 2.6 µM | 3.68 µM
9 | O=C1c2cccc3c(N4CCN(c5ccc6c7c(cccc57)C(=O)N(CCN5CCNCC5)C6=O)CC4)ccc(c23)C(=O)N1CCN1CCNCC1 | 18.4 µM | 47.1 µM | 29 µM |  | 26.3 µM | 42.3 µM | 33 µM | 70.7 µM | 34.1 µM | 67.5 µM | 3.09 µM | 20.9 µM | 7.31 µM |  | 11 µM | 18.3 µM | 16.8 µM | 16.8 µM | 13 µM | 24.7 µM
10 | CC1CC(=O)C(C(O)CC2CC(=O)N(c3ccccc3)C(=O)C2)C(C)C1 (stereo unspecified) | > 100 µM | > 100 µM | > 100 µM | > 100 µM | > 100 µM | > 100 µM | > 100 µM | > 100 µM | > 100 µM |  |  |  |  |  |  |  |  |  |  | 
11 | O=C(O)/C(O)=C1/C=C(c2ccccc2)c2ccccc21 | 46.6 µM |  | 34.8 µM | 43.8 µM |  | 80.7 µM | 35.6 µM | 51.7 µM | 82.3 µM | 33.1 µM |  |  |  |  |  |  |  |  |  | 
12 | Cc1ccccc1NC(=O)C(=O)Cc1nc2ccccc2s1 | > 100 µM |  | > 100 µM | > 100 µM | > 100 µM | > 100 µM | > 100 µM | > 100 µM | > 100 µM | > 100 µM |  |  |  |  |  |  |  |  |  | 
13 | NC(C(=O)O)C(N)C(=O)O (stereo unspecified) |  | > 100 µM | > 100 µM | > 100 µM | > 100 µM | > 100 µM | > 100 µM | > 100 µM | > 100 µM | > 100 µM |  |  |  |  |  |  |  |  |  | 
14 | COC(=O)/C(=C/N1CCN(C(=O)c2ccco2)C1=S)C(C)=O |  | 9.89 µM | 75.4 µM | > 100 µM | 31.9 µM | 42.9 µM | 9.49 µM | 25.6 µM |  | 51 µM |  | 2.64 µM | 20.8 µM | 20.8 µM | 12.2 µM | 17.4 µM | 4.41 µM | 5.84 µM |  | 15.2 µM
15 | CC(C)OCN1COCN=C1NC#N |  | > 100 µM | > 100 µM | > 100 µM | > 100 µM | > 100 µM | > 100 µM | > 100 µM | > 100 µM | > 100 µM |  |  |  |  |  |  |  |  |  | 
16 | COc1cc(C2C(C(=O)O)=C(C)Oc3cc4c(cc32)OCO4)cc(OC)c1OC (stereo unspecified) | > 100 µM | > 100 µM | > 100 µM | > 100 µM | > 100 µM | > 100 µM | > 100 µM |  |  |  |  |  |  |  |  |  |  |  |  | 
17 | CCCCCN(CCCCC)C(=O)[C@@H](CCC(=O)OCc1ccccc1)NC(=O)c1cc2ccccc2[nH]1 | > 100 µM | > 100 µM | > 100 µM |  | > 100 µM | > 100 µM | > 100 µM | > 100 µM | > 100 µM | > 100 µM |  |  |  |  |  |  |  |  |  | 
18 | COC(=O)C(C(=O)C(=O)Nc1ccccc1OC)c1csc(-n2nc(-c3ccccc3)cc2-c2ccccc2)n1 (stereo unspecified) | > 100 µM | > 100 µM | > 100 µM | > 100 µM | > 100 µM | > 100 µM | > 100 µM | > 100 µM |  |  |  |  |  |  |  |  |  |  |  | 
19 | CC(=O)O[C@H]1CCC2[C@@H]3CCC4C(=O)c5oncc5C[C@]4(C)C3CC[C@@]21C (stereo partly specified) | > 100 µM | > 100 µM | > 100 µM | > 100 µM | > 100 µM | > 100 µM | > 100 µM | > 100 µM |  | > 100 µM |  |  |  |  |  |  |  |  |  | 
20 | O=C(N/N=C/c1cc2ccccc2c2ccccc12)c1cc(O)c(O)c(O)c1 | > 100 µM |  | 7.19 µM | 18.2 µM | 14.3 µM | 35.8 µM | 10.1 µM | 14.7 µM | 5.8 µM | 15.9 µM | 2.87 µM |  | 2.1 µM | 3.8 µM | 3.4 µM | 2.38 µM | 2.77 µM | 3.74 µM | 2.17 µM | 4.25 µM
21 | CN(C)CC1(C)CC/C(=C\c2ccc3c(c2)OCO3)C1=O (stereo unspecified) | > 100 µM |  | > 100 µM | > 100 µM | > 100 µM | > 100 µM | > 100 µM | > 100 µM | > 100 µM | > 100 µM |  |  |  |  |  |  |  |  |  | 
22 | Nc1nc(N)c(-c2ccccc2)c(C(=O)Nc2ccc(Cl)c(Cl)c2)n1 |  | > 100 µM | > 100 µM | > 100 µM | > 100 µM | > 100 µM | > 100 µM | > 100 µM | > 100 µM | > 100 µM |  |  |  |  |  |  |  |  |  | 
23 | COCCOC(C)C(/C=N/NC(N)=S)=N/NC(N)=S (stereo unspecified) |  | > 100 µM | > 100 µM | > 100 µM | > 100 µM | > 100 µM | > 100 µM | > 100 µM | > 100 µM | > 100 µM |  | 0.0905 µM | > 100 µM | 0.0558 µM | > 100 µM | 0.0355 µM | > 100 µM | > 100 µM | > 100 µM | > 100 µM
24 | Cc1ccc(NC2=C(Cl)C(=O)c3nc(C)ccc3C2=O)cc1 | > 100 µM | 2.92 µM | 2.93 µM | > 100 µM |  | 2.66 µM | 2.96 µM | 3.78 µM | 3.11 µM | 3.79 µM | 2.65 µM | 1.55 µM | 1.4 µM | 2.52 µM |  | 1.28 µM | 1.57 µM | 1.74 µM | 1.67 µM | 1.82 µM
25 | COCCN1C2=CCCCC2=Nc2c(N)nc(N)nc21 | > 100 µM |  | > 100 µM | > 100 µM | > 100 µM |  | > 100 µM | > 100 µM | > 100 µM | > 100 µM |  |  |  |  |  |  |  |  |  | 
26 | Cc1cccc(NC(=O)CC2C(=O)Nc3ccccc3S2(=O)=O)c1C (stereo unspecified) |  | > 100 µM | 37.9 µM | > 100 µM | 33.7 µM | 32.1 µM | 34.3 µM | > 100 µM | 37.6 µM | 75.4 µM |  |  |  |  |  |  |  |  |  | 
27 | CC(=O)Nc1ccc(/C=c2\sc3nnc(/C=C/c4ccccc4)n3c2=O)cc1 | > 50 µM | > 50 µM |  | > 50 µM | > 50 µM | > 50 µM | > 50 µM | > 50 µM | > 50 µM | > 50 µM |  |  |  |  |  |  |  |  |  | 
28 | Clc1ccc2c(NCCCN3CCN(c4nc(-n5ccnc5)nc5ccccc45)CC3)ccnc2c1 | > 100 µM | > 100 µM | > 62.3 µM | 6.85 µM | > 100 µM | > 100 µM | 3.34 µM |  | 3.34 µM | > 22.1 µM | 2.87 µM | > 28.4 µM | 14.3 µM | 2.38 µM | > 27.5 µM | > 100 µM | 1.67 µM |  | 1.81 µM | 12.3 µM
